One block for each compound: values may come before it.
Tests used:
CDKs = conditions: Current Opinion in Pharmacology, 2003(3): 362-370; cited from earlier work
[1] = test system: LPS induced THP-1 macrophages; test: In vitro THP-1 assay (LPS-induced cytokine expression); format: cell-based, human
Experimental: The human THP-1 cell line can be utilized as an in vitro model of cytokine expression as mediated by Lipopolysaccharide (LPS) or Tumor Necrosis Factorα [TNFα].
Monocytic THP-1 cells (ATCC; TIB-202) can be differentiated into macrophage-like cells expressing pro-inflammatory cytokines like TNFα, IL6 and IL10 upon induction with LPS or by TNFα (autocrine induction) itself.
THP-1 cells are grown in modified RPMI-1640 medium (ATCC, Cat. No. 30-2001) supplemented with 10% FCS and 1% Pen/Strep. For cytokine inhibition assays, cells are seeded at a density of 5×10^5 cells/ml into 6-well plates in standard growth medium supplemented with 100 ng/ml PMA (Sigma, P1585) to induce differentiation into macrophage-like cells. After 24 hours, the medium is replaced with standard growth medium (without PMA) and the cells are incubated for another 48 hours to complete differentiation.
After 72 h of differentiation, the medium is replaced with serum free growth medium, and CDK-inhibiting compounds as well as reference compounds such as positive and negative controls, each dissolved in DMSO are added at concentrations ranging from 0.5 to 5 μM (final concentration of DMSO in the well is 0.1%). Cells are incubated for 60 min with compounds prior to stimulation with 100 ng/ml LPS (Sigma, L2630) for another 4-48 hours. Supernatants are collected and assayed immediately for cytokine expression, e.g. for TNFα, IL-6 and IL-1β using commercially available sandwich ELISA assays (eBioscience, Cat. No 88-7346, 88-7066, 88-7010) or kept frozen at […] until evaluation.
Concentrations of TNFα, IL6 and IL1β within the cell culture supernatants are measured by using commercial ELISA Kits (eBioscience) according to the manufacturer's instructions.
Compound #133 was administered to differentiated THP-1 cells in triplicates as described above (see section 2.). After 60 min of pre-incubation with test or reference compound (a p38 inhibitor and an IKK-inhibitor, respectively) alone, cells were stimulated with LPS. […]

TNFα = test: LPS in vivo assay (model of cytokine repression in vivo); design: species or system mice; conditions: 30 mg/kg single p.o. dose 30 min prior to LPS; blood serum 90 min after LPS; ELISA; FIG. 3
Experimental: For the LPS induced model of septic shock, mice receive an intraperitoneal (i.p.) injection of 30 μg bacterial Lipopolysaccharide (LPS; L2630 SIGMA) in saline. Said LPS-mediated initiation of the inflammatory signalling cascade results in increasing blood serum concentrations of cytokines such as e.g. TNFα, IL-6 and IL1β. Blood can be taken from these animals at defined time points. Thereafter, serum will be separated and the samples can be stored at −80° C. until cytokine concentrations are measured using commercial ELISA assays. (A L Moreira et al., Braz J Med Biol Res 1997; 30:1199-1207).
Wildtype mice (strain C3HeB/FeJ) (age, sex and weight matched) were injected with 30 μg LPS (SIGMA) intraperitoneally. 90 minutes after LPS administration, these animals were anaesthetized with 0.1 ml/10 g bodyweight Ketamine-Rompun (50/20 mg/ml) and blood for serum preparation was taken via cardiac puncture.
Pharmacological treatment groups (n=4) of LPS mice received per os (p.o.) injections of CDK-inhibiting compounds or the vehicle (negative control), respectively. […]
Serum concentrations of TNF alpha and IL6 within the samples were measured by using commercial ELISA Kits (Natutec) according to the manufacturers instructions. […]

TNF α = test: In vitro human whole blood assay (cytokine inhibition); format: cell-based; conditions: for TNF α levels reduced: human whole blood
Experimental: […]. For this purpose, human heparinised whole blood from healthy donors was diluted 1:5 with medium (RPMI 1640, e.g. ATCC #30-2001, supplemented with 4.5 g/L glucose, 4 mM L-glutamine, pyruvate, 1250 U sodium-heparin and 1% Penicillin/Streptomycin), incubated with the anti-inflammatory compound or solvent for 30-60 minutes and then stimulated with 20 ng/ml to 1 μg/ml LPS or SEB for 3 to 48 hours. Supernatants were harvested and analysed for cytokine content, e.g. by ELISA.

CDK9/CycT = molecular target: T1, CDK9/CycT (Homo sapiens, UniProt P50750); test: In vitro kinase inhibition assay; format: biochemical; conditions: 1 μM ATP, 33P FlashPlate assay
T1 construct: host or cells: Sf9 insect cells, baculovirus
T1 sequence (P50750 whole entry): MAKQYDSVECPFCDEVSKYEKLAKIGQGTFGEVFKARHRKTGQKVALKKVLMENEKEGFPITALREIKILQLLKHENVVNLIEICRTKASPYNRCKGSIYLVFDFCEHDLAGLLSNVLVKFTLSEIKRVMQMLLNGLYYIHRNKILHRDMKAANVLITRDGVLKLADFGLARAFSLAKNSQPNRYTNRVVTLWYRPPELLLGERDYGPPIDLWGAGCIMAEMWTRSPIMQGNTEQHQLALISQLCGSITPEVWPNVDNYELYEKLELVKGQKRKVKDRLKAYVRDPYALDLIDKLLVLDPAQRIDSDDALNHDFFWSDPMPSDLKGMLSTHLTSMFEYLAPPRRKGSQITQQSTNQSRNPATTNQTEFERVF
T1 sequence (O60563 whole entry partner): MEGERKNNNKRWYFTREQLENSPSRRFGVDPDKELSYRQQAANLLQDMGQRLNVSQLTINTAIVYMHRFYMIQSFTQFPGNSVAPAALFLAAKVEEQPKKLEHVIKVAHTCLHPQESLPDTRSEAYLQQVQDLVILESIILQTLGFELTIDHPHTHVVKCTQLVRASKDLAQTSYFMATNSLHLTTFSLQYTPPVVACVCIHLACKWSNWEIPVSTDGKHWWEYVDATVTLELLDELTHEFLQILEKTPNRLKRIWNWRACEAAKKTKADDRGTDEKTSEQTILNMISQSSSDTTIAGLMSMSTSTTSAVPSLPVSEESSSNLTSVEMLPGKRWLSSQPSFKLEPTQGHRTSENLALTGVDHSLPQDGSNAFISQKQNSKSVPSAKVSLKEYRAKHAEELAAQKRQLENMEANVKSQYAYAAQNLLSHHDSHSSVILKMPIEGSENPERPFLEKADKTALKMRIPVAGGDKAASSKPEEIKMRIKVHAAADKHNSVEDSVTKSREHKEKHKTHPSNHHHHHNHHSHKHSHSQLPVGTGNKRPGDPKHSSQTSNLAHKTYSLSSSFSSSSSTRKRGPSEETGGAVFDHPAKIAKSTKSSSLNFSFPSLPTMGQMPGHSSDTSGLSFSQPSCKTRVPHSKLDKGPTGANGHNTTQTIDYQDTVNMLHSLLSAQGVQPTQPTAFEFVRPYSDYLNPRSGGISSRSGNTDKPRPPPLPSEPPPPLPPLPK
Experimental: IC50 profiles of the compounds according to general Formula I or Ia of the present invention can be determined for cyclin-dependent kinases CDK2/CycA, CDK4/CycD1, CDK6/CycD1 and CDK9/CycT in enzymatic kinase inhibition assays in vitro. IC50 values as obtained in these assays are used for evaluating the specific selectivity and potency of the compounds with respect to CDK9 inhibition.
Compounds are used as 1×10^−2 M stock solutions in 100% DMSO, 100 μl each in column 2 of three 96-well V-shaped microtiterplates (in the following, said plates are referred to as “master plates”). […]
For the determination of inhibitory profiles, the following 4 protein kinases are used: CDK2/CycA, CDK4/CycD1, CDK6/CycD1 and CDK9/CycT. […] The purity of each kinase is determined by SDS-PAGE/silver staining and the identity of each kinase is verified by western blot analysis with kinase specific antibodies or by mass spectroscopy. […]
Reaction mixtures are incubated at 30° C. for 80 minutes. […] Incorporation of ^33P is determined with a microplate scintillation counter (Microbeta, Wallac).
The median value of the counts in column 1 (n=8) of each assay plate is defined as “low control”. This value reflects unspecific binding of radioactivity to the plate in the absence of a protein kinase but in the presence of the substrate. […]

Compound: CCn1cnc2c(Nc3cccc(Cl)c3)nc(N[C@@H]3CCCC[C@@H]3N)nc21 [CGP74514A]
inhibitory activity against CDKs 4 and 6 (CDKs): no inhibitory activity | selectivity for a specific CDK (CDKs): greater selectivity for CDKs 1, 2 and 5

IC50 (TNF α; Homo sapiens, deduced from the % reduction data): < 3000 nM | IC50 (CDK9/CycT): 37.6 nM
Compound: COc1ccccc1-c1ccnc(Nc2cccc(S(C)(=O)=O)c2)n1 [Compound #133]
signalα signal compared to the DMSO (vehicle control) ([1]; at each concentration, FIG. 4): significantly reduced | effect on TNFα and IL6 protein concentration in the cell supernatant versus vehicle (DMSO) ([1]; differentiated THP-1 cells, 60 min pre-incubation, LPS 4-48 h): significant inhibitory effect | reduction of LPS-induced cytokine levels (TNFα, IL6, IL1β) ([1]; differentiated THP-1 cells, LPS 100 ng/ml, supernatant ELISA, FIG. 4): up to 100% | reduction of LPS-induced TNFα level (signalα signal) compared to the DMSO vehicle control (TNFα): 50% | TNF α levels reduced (TNF α; 0.3 μM): 15% | TNF α levels reduced (TNF α; 3 μM): 60% | TNF α levels reduced (TNF α; 10 μM): 85% | TNF α levels reduced (TNF α; 30 μM): 94%

Compound: CN1CC[C@H](c2c(O)cc(O)c3c(=O)cc(-c4ccccc4Cl)oc23)[C@H](O)C1 [Flavopiridol]
selectivity for a specific CDK (CDKs): not particularly selective for a specific CDK

Compound: CC[C@H](CO)Nc1nc(NCc2ccccc2)c2ncn(C(C)C)c2n1 [roscovitine]
inhibitory activity against CDKs 4 and 6 (CDKs): no inhibitory activity | selectivity for a specific CDK (CDKs): greater selectivity for CDKs 1, 2 and 5

Compound: purvanolols
inhibitory activity against CDKs 4 and 6 (CDKs): no inhibitory activity | selectivity for a specific CDK (CDKs): greater selectivity for CDKs 1, 2 and 5
